Measured values published in ChEMBL document CHEMBL1149667, “Synthesis of ferulic ester dimers, functionalisation and biological evaluation as potential antiatherogenic and antiplasmodial agents” (Bioorg Med Chem, 2007).
The source made the active and inactive calls. The calls are words filed in the database; no cut-off is given here.

Experiments:
HMEC-1 [1] = assay: (§1) Cytoprotective effect on HMEC1 cells assessed as cell viability by MTT assay; type: functional; conditions: Homo sapiens
[2] = (§2) Cytoprotective effect on HMEC1 cells assessed as cell viability at 10 uM after 24 hrs by MTT assay; type: functional; conditions: Homo sapiens, HMEC-1, 24 h, read-out: Activity
P388 [3] = assay: Cytotoxicity against mouse P388 cells at 10 ug/mL after 72 hrs; type: functional; conditions: P388, 72 h
Plasmodium falciparum [4] = assay: Antiplasmodial activity against Plasmodium falciparum FCM29 at 10 ug/mL as [3H]hypoxanthine uptake; type: functional
HMEC-1 [5] = assay: Effect on HMEC1 cells-mediated LDL oxidation at 10 uM after 6 hrs by TBARS assay; type: functional
P388 [6] = assay: Cytotoxicity against mouse P388 cells after 72 hrs; type: functional, cell-based; conditions: P388, 72 h
HMEC-1 [7] = assay: Effect on HMEC1 cells-mediated LDL oxidation at 100 uM after 6 hrs by TBARS assay; type: functional, cell-based; conditions: Homo sapiens
HMEC-1 [8] = assay: as §2; type: functional; conditions: Homo sapiens
[9] = as §1; type: functional, Homo sapiens, HMEC-1
Plasmodium falciparum [10] = assay: Antiplasmodial activity against Plasmodium falciparum FCM29 by [3H]hypoxanthine uptake; type: functional, organism-based

Row | IC50 (Plasmodium falciparum [10]) [nM] | Compound | Activity (HMEC-1 [1]) | viability at 10 µM [2] [%] | inhibition at 10 µg/mL (P388 [3]) [%] | inhibition at 10 µg/mL (Plasmodium falciparum [4]) [%] | Activity (HMEC-1 [5]; Homo sapiens) | IC50 (P388 [6]) [nM] | Activity (HMEC-1 [7]) | Activity (HMEC-1 [8]) [%] | Activity [9] [%] | Activity (HMEC-1 [5]) [%]
1 | – | COC(=O)/C=C/c1ccc(O/C(=C\c2ccc(O)c(OC)c2)C(=O)OC)c(OC)c1 | Active | 40 | 0 | 23.8 | Active | – | – | – | – | –
2 | – | COC(=O)/C=C/c1cc(OC)c2c(c1)C(C(=O)OC)C(c1ccc(O)c(OC)c1)O2 (stereo not drawn) | Active | 40 | 85.2 | 0 | Active | 772 | – | – | – | –
3 | – | COC(=O)/C=C/c1cc(OC)c2c(c1)C(CO)C(c1ccc(O)c(OC)c1)O2 (stereo not drawn) | – | 40 | 8.63 | 25.7 | – | – | Active | – | – | –
4 | – | VITAMIN E | 29% | – | – | – | 55% | – | – | 40 | – | –
5 | 798 | COC(=O)/C=C/c1cc(OC)c2c(c1)C(COC(=O)c1cc(O)c(O)c(O)c1)C(c1ccc(O)c(OC)c1)O2 (stereo not drawn) | – | 40 | 16.4 | 93.7 | – | – | – | – | 59.9 | 2.2
6 | – | CC[C@@]1(O)C(=O)OCc2c1cc1n(c2=O)Cc2cc3ccccc3nc2-1 [CAMPTOTHECIN] | – | – | – | – | – | 32.1 | – | – | – | –
7 | – | CC(C)(Sc1cc(C(C)(C)C)c(O)c(C(C)(C)C)c1)Sc1cc(C(C)(C)C)c(O)c(C(C)(C)C)c1 [PROBUCOL] | – | 55 | – | – | – | – | – | – | 92 | 10
